From patent publication US6423317B1, “Method of killing protozoa” (S.S. Steiner, Inc., priority 2001, dated 2002)

Experiments:
Euglena sp. = assay: Protozoicidal effect, time for 100% kill; type: cell-based; conditions: observation time 24 hours
Protocol: (§1) […] protozoa had stopped moving. The observation time was 24 hours. In order to determine whether the protozoa had been killed rather than only temporarily inactivated, the organisms in hop solution were centrifuged, the supernatant removed, and the protozoa placed into fresh medium in which hop was not present. When there was no revival of the organisms, it was concluded that they were dead rather than only temporarily inactivated.

P. caudatum [1] = assay: Protozoicidal effect, time for 100% kill; type: cell-based, Paramecium caudatum; conditions: for Time of death (100% kill): observation time 24 hours
Protocol: as §1

P. papillata = assay: Protozoicidal effect, time for 100% kill; type: cell-based, Polytomella papillata; conditions: observation time 24 hours
Protocol: as §1

Chaos sp. [2] = assay: Co-action of hop resins with carbon dioxide; type: cell-based
Protocol: (§2) Different concentrations of the alpha and beta resins of hop were prepared in 10 ml. of medium, as identified in Table 1, and poured into plastic tissue culture flasks of 25 cm. growth area with screw caps, obtained from Falcon, Oxnard, Calif. Carbon dioxide was then bubbled through the medium in the bottles at a rapid rate for a period of 30 seconds. An average of ten organisms were added to each flask and examined directly under the stereomicroscope. The times that were taken for a 100% kill of the organisms, that is, when all of the organisms ceased any motion, were recorded in minutes and are tabulated in Tables 7 and 8.
The same tests but at greater resin concentrations were carried out on an amoeba strain, Chaos sp., and the results recorded in Table 8.

Amoeba proteus = assay: Protozoicidal effect, time for 100% kill; type: cell-based; conditions: 500 μg/ml, observation time 24 hours
Protocol: (§3) The protozoicidal effect of various hop compounds was determined by preparing different concentrations of hop solution in 10 ml. of medium. The solution was poured into 6×4 multiwell dishes—3424 Mark 2 (Coster, Cambridge, Mass.). An average of 10 microorganisms was added to each well and observed under the stereomicroscope. Results were expressed as the time in minutes for a 100% kill, which was presumed when all of the
(§4) protozoa had stopped moving. The observation time was 24 hours.
(§5) In order to determine whether the protozoa had been killed rather than only temporarily inactivated, the organisms in hop solution were centrifuged, the supernatant removed, and the protozoa placed into fresh medium in which hop was not present. When there was no revival of the organisms, it was concluded that they were dead rather than only temporarily inactivated.
(§6) Tests were conducted to determine the effectiveness of the alpha and beta resins against amoebae.

Chaos sp. [3] = assay: Protozoicidal effect, time for 100% kill; type: cell-based; conditions: for Time of death (100% kill): observation time 24 hours
Protocol: as §3, §4, §5, §6

P. caudatum [4] = assay: Co-action of hop resins with carbon dioxide, time for 100% kill; type: cell-based, Paramecium caudatum; conditions: carbon dioxide bubbled into the medium for 30 seconds before inoculation
Protocol: as §2

T. pyriformis = assay: Protozoicidal effect, time for 100% kill; type: cell-based, Tetrahymena pyriformis; conditions: observation time 24 hours
Protocol: as §1

[5] = 0.2 μg/ml, listed as beta resin
[6] = 0.5 μg/ml, listed as beta resin

Q: For `CC(C)=CCC1=C(O)C(C(=O)CC(C)C)=C(O)C(CC=C(C)C)(CC=C(C)C)C1=O` [Beta Resin, lupulone], which “Time of death (100% kill)” value (Euglena sp.; 0.05 μg/ml) is on record?
A: not sensitive

Q: And the “Time of death (100% kill)” value (Euglena sp.; 0.5 μg/ml)?
A: 2.5 min

Q: And the “Time of death (100% kill)” value (Euglena sp.; 1.0 μg/ml)?
A: 1.5 min

Q: What about the “Time of death (100% kill)” value (Euglena sp.; 2.0 μg/ml) of the same compound?
A: 1.2 min

Q: And the “Time of death (100% kill)” value (P. caudatum [1]; 0.05 μg/ml)?
A: not sensitive

Q: And the “Time for death to occur” value (P. caudatum [1]; 0.1 ug/ml)?
A: one

Q: And the “Time of death (100% kill)” value (P. caudatum [1]; 0.1 μg/ml)?
A: 60 min

Q: And the “Time of death (100% kill)” value (P. caudatum [1]; 0.2 μg/ml)?
A: 5 min

Q: What about the “Time of death (100% kill)” value (P. caudatum [1]; [5]) of the same compound?
A: ≤ 5 min

Q: What about the “Time of death (100% kill)” value (P. caudatum [1]; 0.5 μg/ml) of the same compound?
A: 3.5 min

Q: What about the “Time of death (100% kill)” value (P. caudatum [1]; [6]) of the same compound?
A: five

Q: And the “Time of death (100% kill)” value (P. caudatum [1]; 1.0 μg/ml)?
A: 3.0 min

Q: What about the “Time of death (100% kill)” value (P. caudatum [1]; 2.0 μg/ml) of the same compound?
A: 2.0 min

Q: What about the “Time of death (100% kill)” value (P. papillata; 0.05 μg/ml) of the same compound?
A: not sensitive

Q: What about the “Time of death (100% kill)” value (P. papillata; 0.2 μg/ml) of the same compound?
A: 40 min

Q: And the “Time of death (100% kill)” value (P. papillata; [5])?
A: ≤ 40 min

Q: What about the “Time of death (100% kill)” value (P. papillata; 0.5 μg/ml) of the same compound?
A: 5 min

Q: And the “Time of death (100% kill)” value (P. papillata; 1.0 μg/ml)?
A: 3.5 min

Q: And the “Time of death (100% kill)” value (P. papillata; 2.0 μg/ml)?
A: 2.0 min

Q: And the “Effectiveness in killing with prior carbon dioxide treatment” value (“Effectiveness in killing” for short) (Chaos sp. [2]; resin 10 ug/ml, prior carbon dioxide treatment)?
A: both were effective

Q: What about the “Effectiveness in killing” value (Chaos sp. [2]; resin 50 ug/ml, carbon dioxide pretreatment) of the same compound?
A: both were effective with carbon dioxide pretreatment

Q: And the “Effectiveness in killing” value (Chaos sp. [2]; resin 100 ug/ml, carbon dioxide pretreatment)?
A: all were most effective with pretreatment

Q: And the “Time of death (100% kill)” value (Amoeba proteus)?
A: 180 min

Q: What about the “Time of death (100% kill)” value (Chaos sp. [3]; 10 μg/ml) of the same compound?
A: neither the alpha nor beta resins were effective alone

Q: What about the “Time of death (100% kill)” value (Chaos sp. [3]; 50 μg/ml) of the same compound?
A: 60 min

Q: What about the “Time of death (100% kill)” value (Chaos sp. [3]; 50 μg/ml, listed as beta resin) of the same compound?
A: effective per se

Q: And the “Time of death (100% kill)” value (Chaos sp. [3]; 100 μg/ml)?
A: 30 min

Q: And the “Time of death (100% kill)” value (Chaos sp. [3]; 100 μg/ml, listed as beta resin)?
A: all were effective

Q: What about the “Time of death (100% kill)” value (Chaos sp. [3]; 200 μg/ml) of the same compound?
A: 30 min

Q: What about the “Time of death (100% kill)” value (Chaos sp. [3]; 500 μg/ml) of the same compound?
A: 25 min

Q: And the “Time of death (100% kill), resin + CO2” value (P. caudatum [4]; resin 0.05 μg/ml)?
A: 14 min

Q: And the “Time of death (100% kill), resin + CO2” value (P. caudatum [4]; resin 0.1 μg/ml)?
A: 5 min

Q: And the “Time of death (100% kill)” value (T. pyriformis; 0.05 μg/ml)?
A: not sensitive

Q: And the “Time of death (100% kill)” value (T. pyriformis; 0.2 μg/ml)?
A: 15 min

Q: What about the “Time of death (100% kill)” value (T. pyriformis; [5]) of the same compound?
A: ≤ 15 min

Q: And the “Time of death (100% kill)” value (T. pyriformis; 0.5 μg/ml)?
A: 3 min

Q: And the “Time of death (100% kill)” value (T. pyriformis; [6])?
A: five

Q: And the “Time of death (100% kill)” value (T. pyriformis; 1.0 μg/ml)?
A: 1.5 min

Q: What about the “Time of death (100% kill)” value (T. pyriformis; 2.0 μg/ml) of the same compound?
A: 1.0 min

Q: What about the “Time of death (100% kill)” value (T. pyriformis; 2.0 μg/ml, listed as beta resin) of the same compound?
A: two

Q: For `O=C=O` [Carbon dioxide, carbon dioxide], which “Time of death with carbon dioxide, without addition of hop” value (P. caudatum [4]; no hop) is on record?
A: *Carbon dioxide had been bubbled into the medium for 30 seconds previous to inoculation and death without addition of hop occurred between 40-50 minutes.

Q: What does the source list for `COc1cc(O)c(CC=C(C)C)c(O)c1C(=O)/C=C/c1ccc(O)cc1` [Xanthohumol, xanthohumol]?
A: Time of death (100% kill) (P. caudatum [1]; 0.05 μg/ml): 10 min; Time of death (100% kill) (P. caudatum [1]; 0.05 μg/ml, listed as xanthohumol): ten; Time of death (100% kill) (P. caudatum [1]; 0.1 μg/ml): 5 min; Time of death (100% kill) (P. caudatum [1]; 1.0 μg/ml): 2.5 min; Concentration effective in killing (Chaos sp. [3]): ≥ 5 µg/mL; Time of death (100% kill) (Chaos sp. [3]; 5.0 μg/ml): 15 min; Time of death (100% kill) (Chaos sp. [3]; 10 μg/ml): 11 min
